One data set deals with Bacillus subtilis. Kind of data set: Antibacterial activity against Bacillus subtilis KCTC 3068 incubated for 24 hrs by CLSI based broth microdilution method. The class given is functional.
The nature of data set [1]: Hydrophobicity of compound assessed as retention time by RP-HPLC analysis. The class given is physicochemical.
In data set [2] the test system is Staphylococcus aureus. Kind of data set: Antibacterial activity against methicillin-resistant Staphylococcus aureus CCARM 3089 incubated for 24 hrs by CLSI based broth microdilution method. The class given is functional. A general note: In broth dilution the organism is exposed to a series of concentrations in liquid medium.
The subject of data set [3] is Escherichia coli. Kind of data set: Antibacterial activity against Escherichia coli KCTC 1682 incubated for 24 hrs by CLSI based broth microdilution method. The format is functional.
Data set [4] has as its system Acinetobacter baumannii. Kind of data set: Antibacterial activity against carbapenem-resistant Acinetobacter baumannii CCARM 12005 incubated for 24 hrs by CLSI based broth microdilution method. The format is functional.
Data set [5] is described as follows: Effect on secondary structure of drug in PBS assessed as formation of random coil structure at 150 uM by CD analysis. The class given is physicochemical. The following applies: buffer.
Data set [6] concerns Escherichia coli. The data set is described as follows: Induction of inner membrane permeabilization in Escherichia coli KCTC 1682 at 0.5 times MIC by PI staining based flow cytometry (reference value: 1.51 %). The class given is functional. (In general: In flow cytometry, cells or beads pass a laser one at a time.)
Data set [7] concerns Staphylococcus aureus. Kind of data set: Synergistic antibacterial activity against methicillin-resistant Staphylococcus aureus CCARM 3089 assessed as fractional inhibitory concentration index by measuring ratio of MIC of compound in presence of Ciprofloxacin to MIC to compound incubated for 24 hrs by broth microdilution method. The format is functional.
Data set [8] concerns Staphylococcus aureus. The data set is described as follows: Synergistic antibacterial activity against methicillin-resistant Staphylococcus aureus CCARM 3089 incubated for 24 hrs in presence of Oxacillin by broth microdilution method. The format is functional.
The test system of data set [9] is Pseudomonas aeruginosa. Kind of data set: Synergistic antibacterial activity against multi-drug resistant Pseudomonas aeruginosa CCARM 2095 assessed as fractional inhibitory concentration index incubated for 24 hrs in presence of Chloramphenicol by broth microdilution method. The class given is functional.
The test system of data set [10] is Pseudomonas aeruginosa. Kind of data set: Synergistic antibacterial activity against multi-drug resistant Pseudomonas aeruginosa CCARM 2095 assessed as fractional inhibitory concentration index by measuring ratio of MIC of Ciprofloxacin in presence of compound to MIC to Ciprofloxacin incubated for 24 hrs by broth microdilution method. The format is functional.

For data set [11], the system named is Pseudomonas aeruginosa. Kind of data set: Synergistic antibacterial activity against multi-drug resistant Pseudomonas aeruginosa CCARM 2095 incubated for 24 hrs in presence of Ciprofloxacin by broth microdilution method. The format is functional.
Data set [12] in a line: Cytotoxicity against mouse RAW264.7 cells assessed as cell survival at 10 to 20 uM incubated for 16 hrs by WST-8 assay relative to control. As to conditions: dose 10-20 µM, read-out: Survival. The format is toxicity, cell-based. (In general: Formazan colour is commonly taken as a measure of viable cells.)
In a further data set the test system is Lipopolysaccharide (LPS). Kind of data set: Displacement of BODIPY-TR-cadaverine from Escherichia coli 0111:B4 LPS at 8 uM incubated for 30 mins by fluorescence based assay relative to control.
In another data set the test system is RAW264.7. Kind of data set: Displacement of FITC-labeled LPS pre-bound to surface receptors of mouse RAW264.7 cells incubated for 1 hr by flow cytometry. The class given is cell-based.
In data set [13] the target is T1, Toll-like receptor 4 (Mus musculus) (UniProt Q9QUK6).
T1 sequence (whole entry): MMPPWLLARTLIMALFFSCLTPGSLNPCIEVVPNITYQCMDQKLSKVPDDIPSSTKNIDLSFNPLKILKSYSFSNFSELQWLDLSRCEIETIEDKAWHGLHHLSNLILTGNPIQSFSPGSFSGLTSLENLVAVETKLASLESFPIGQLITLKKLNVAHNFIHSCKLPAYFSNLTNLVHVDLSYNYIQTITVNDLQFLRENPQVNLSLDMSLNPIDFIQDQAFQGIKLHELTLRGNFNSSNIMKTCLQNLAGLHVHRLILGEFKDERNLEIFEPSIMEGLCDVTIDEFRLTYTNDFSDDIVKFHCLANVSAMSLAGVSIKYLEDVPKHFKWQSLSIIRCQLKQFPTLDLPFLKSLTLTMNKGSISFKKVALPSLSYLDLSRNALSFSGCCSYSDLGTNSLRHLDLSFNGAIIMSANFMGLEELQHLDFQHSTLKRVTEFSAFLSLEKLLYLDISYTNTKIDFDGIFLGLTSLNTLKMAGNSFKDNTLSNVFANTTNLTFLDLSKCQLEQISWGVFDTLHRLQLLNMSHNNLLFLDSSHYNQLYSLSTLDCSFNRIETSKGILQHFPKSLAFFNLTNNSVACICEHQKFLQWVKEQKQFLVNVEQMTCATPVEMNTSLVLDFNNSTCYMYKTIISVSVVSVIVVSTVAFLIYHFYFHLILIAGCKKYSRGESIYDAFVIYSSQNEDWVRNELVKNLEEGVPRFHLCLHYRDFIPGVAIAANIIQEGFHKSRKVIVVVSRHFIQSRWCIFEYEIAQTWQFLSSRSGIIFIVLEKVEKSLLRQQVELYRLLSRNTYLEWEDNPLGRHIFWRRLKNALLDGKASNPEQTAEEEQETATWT
Kind of data set: Inhibition of LPS-induced TLR4 activation in mouse RAW264.7 cells assessed as decrease in JNK phosphorylation at 2 uM pretreated for 1 hr followed by LPS treatment for 30 mins by Western blot analysis relative to control. As to conditions: time 90.0 min. The format is cell-based.

The target of data set [14] is T1, Toll-like receptor 4 (Mus musculus). Kind of data set: Inhibition of LPS-induced TLR4 activation in mouse RAW264.7 cells assessed as decrease in phosphorylated NF-kappaB nuclear translocation at 10 uM pretreated for 1 hr followed by LPS treatment for 30 mins by CLSM analysis. As to conditions: time 90.0 min. The class given is cell-based.
The subject of data set [15] is Acinetobacter baumannii. Kind of data set: Antibacterial activity against carbapenem-resistant Acinetobacter baumannii 1707 incubated for 24 hrs by CLSI based broth microdilution method. The class given is functional, organism-based.
The subject of data set [16] is Mus musculus. The data set is described as follows: Antiseptic activity in sepsis shock ICR mouse model infected with carbapenem-resistant Acinetobacter baumannii assessed as decrease in TNF-alpha level in serum at 1 mg/kg, ip pretreated with compound for 1 hr followed by bacterial infection measured after 16 hrs relative to control. As to conditions: time 17 hrs. The class given is functional. Also noted: scale not given: the % may be the effect or the level left.

Data set [17] deals with Mus musculus. Kind of data set: Antiseptic activity in sepsis shock ICR mouse model infected with carbapenem-resistant Acinetobacter baumannii assessed as decrease in IL-6 level in serum at 1 mg/kg, ip pretreated with compound for 1 hr followed by bacterial infection measured after 16 hrs relative to control. Also noted: scale not given: the % may be the effect or the level left. The following applies: time 17 hrs. The format is functional.

The test system of data set [18] is Mus musculus. The data set is described as follows: Antiseptic activity in sepsis shock ICR mouse model infected with carbapenem-resistant Acinetobacter baumannii assessed as decrease in BUN level in serum at 1 mg/kg, ip pretreated with compound for 1 hr followed by bacterial infection measured after 16 hrs relative to control. As to conditions: time 17 hrs. The class given is functional. Further details: scale not given: the % may be the effect or the level left.

Data set [19] concerns Mus musculus. The data set is described as follows: Antiseptic activity in sepsis shock ICR mouse model infected with carbapenem-resistant Acinetobacter baumannii assessed as reduction in bacterial count in lungs at 1 mg/kg, ip pretreated with compound for 3 hrs followed by bacterial infection measured after 16 hrs relative to control. As to conditions: time 19 hrs. Also noted: scale not given: the % may be the effect or the level left. The class given is functional.

Data set [20] relates to Mus musculus. The data set is described as follows: Antiseptic activity in sepsis shock ICR mouse model infected with carbapenem-resistant Acinetobacter baumannii assessed as reduction in bacterial count in liver at 1 mg/kg, ip pretreated with compound for 1 hr followed by bacterial infection measured after 16 hrs relative to control. The format is functional. Further details: scale not given: the % may be the effect or the level left. The following applies: time 17 hrs.

For data set [21], the system named is Mus musculus. Kind of data set: Antiseptic activity in sepsis shock ICR mouse model infected with carbapenem-resistant Acinetobacter baumannii assessed as reduction in serum IL-6 level at 1 mg/kg, ip pretreated with compound for 3 hrs followed by bacterial infection measured after 16 hrs relative to control. As to conditions: time 19 hrs. The class given is functional. Further details: scale not given: the % may be the effect or the level left.

In data set [22] the test system is Mus musculus. Kind of data set: Antiseptic activity in sepsis shock ICR mouse model infected with carbapenem-resistant Acinetobacter baumannii assessed as reduction in serum IL-6 level at 1 mg/kg, ip pre-infected with bacteria followed by compound administration 3 hrs post-infection measured after 16 hrs relative to control. The format is functional. Further details: scale not given: the % may be the effect or the level left.

The term MIC denotes the lowest concentration found to suppress growth. In general, inhibition refers to the percentage by which the read-out fell short of the control.

The source made the active and inactive calls. No cut-off for these calls is given here.

Take H-GVFRLKKWIKKVIKKWGK-NH2: the MIC was 4 µM with Bacillus subtilis; 8 µM in the data set on Staphylococcus aureus [2]; 16 µM in the data set on Escherichia coli [3]; 4 µM against Acinetobacter baumannii [4]; 0.5 µM in the data set on Staphylococcus aureus [8]; 4 µM in the data set on Pseudomonas aeruginosa [11]. Further, the Retention_time in data set [1] was 20.06 min. Further, the Activity result in [5] is recorded as “Active”; with Escherichia coli [6] it was approximately 100%. The FIC in the data set with Staphylococcus aureus [7] was determined as 0.25; with Pseudomonas aeruginosa [10], 0.125. In addition, the “fractional inhibitory concentration index (FICI)” value with Pseudomonas aeruginosa [9] was 0.375. For the same substance, in data set [12], the viability at 16 h, up to 20 µM is more than 95%.
Consider H-GVFRLKKWLKKVKKWGK-NH2, for which the MIC turned out to be 4 µM against Bacillus subtilis; 8 µM with Staphylococcus aureus [2]; 16 µM against Escherichia coli [3]; 4 µM in the data set on Acinetobacter baumannii [4]; 0.5 µM in the data set with Staphylococcus aureus [8]; 4 µM in the data set with Pseudomonas aeruginosa [11]. The Retention_time in data set [1] came to 21.66 min. The Activity result in [5] is “Active”; in the data set on Escherichia coli [6] it was approximately 100%; in the data set on Lipopolysaccharide (LPS) it was 38%; with RAW264.7 it was “Active; Activity Similar To Ll-37”; in the data set on Mus musculus [16] it was 49.4%; in the data set on Mus musculus [17], 86.3%. The Activity in the data set on Mus musculus [18] was determined as 56.7%; in the data set on Mus musculus [19] it was 98%; in the data set on Mus musculus [20] it was 99.7%; with Mus musculus [21], 99.9%; in the data set on Mus musculus [22], 14.8%. The FIC in the data set on Staphylococcus aureus [7] came to 0.5; in the data set on Pseudomonas aeruginosa [10] it was 0.25. The “fractional inhibitory concentration index (FICI)” value in the data set on Pseudomonas aeruginosa [9] is on record as 0.375. The viability at 16 h, up to 20 µM in data set [12] was more than 95%. Further, the inhibition in data set [13] amounted to 52%. Moreover, the inhibition result in [14] was “Active”. Moreover, in the data set on Acinetobacter baumannii [15], the outcome was Active.

Source of the values: ChEMBL document CHEMBL6074662, “Antibacterial, Antibiofilm, and Anti-inflammatory Effects of a Novel Thrombin-Derived Peptide in Sepsis Models: Insights into Underlying Mechanisms” (J Med Chem, 2024).
